We go through 18 molecules from patent US20240010658A1, “ABHD6 ANTAGONIST” (ONO PHARMACEUTICAL CO., LTD., priority 2021, published 2024).

The target of experiment [1] is recombinant human ABHD6 (33-337) (Homo sapiens (Human), UniProt Q9BV23). Nature of the experiment: Evaluation of ABHD6 enzyme inhibitory activity (arachidonic acid production from 1-arachidonoyl glycerol, RapidFire-MS). As to conditions: inhibition of arachidonic acid production, 10 μmol/L 1-arachidonoyl glycerol, 1 hour, room temperature. The format is biochemical. As to the method:
The recombinant human ABHD6 (33-337) was a GST-tagged ABHD6, and one which was expressed in E. coli, then purified with a Glutathione-Sepharose 4B resin, and then concentrated was used. The enzyme reaction was carried out at room temperature using a 384-well microplate made of polypropylene, and wells to which no enzyme was added were designated as a blank group.
One hour after the start of the enzyme reaction, methanol containing, as an internal standard substance, arachidonic acid-d8 (Cayman Chemical) and 1% formic acid was added to stop enzymatic reaction. The upper part of the enzyme reaction plate was sealed with aluminum, and centrifugation was performed at 560 g for 5 minutes at room temperature. Then, arachidonic acid as an enzyme reaction product and arachidonic acid-ds as the internal standard substance were quantified with RapidFire (registered trademark)-Mass Spectrometry system.

The target in another experiment is human ABHD6 (Homo sapiens (Human), UniProt Q9BV23). Nature of the experiment: Measurement of binding affinity for human ABHD6 (BRET, HEK293 cells expressing NanoLuc-human ABHD6 fusion protein). As to conditions: BRET competition with fluorescent probe molecule 100 nmol/L in HEK293 cells expressing NanoLuc-human ABHD6. The method, then:
The binding affinity of the test compound for human ABHD6 was measured using bioluminescence resonance energy transfer (hereinafter, abbreviated as BRET) as an index. The bioluminescence resonance energy transfer is induced by the proximity of a probe molecule and a NanoLuc-human ABHD6 fusion protein, which is caused by allowing a fluorescent probe molecule and a test compound to act in a competitive manner using HEK293 cells forcibly expressing the NanoLuc-human ABHD6 fusion protein.
The test compound and the compound described in Example 2 as a control substance were each dissolved in dimethyl sulfoxide (DMSO) to prepare a 10 mmol/L solution. The prepared 10 mmol/L solution was thawed at the time of use, serially diluted with DMSO, and subjected to an experiment.
HEK293 cells expressing a NanoLuc-human ABHD6 fusion protein were statically cultured at 37° C. in the presence of 5% CO2 using inactivated (56° C., 30 min) 9.8 vol % non-dialyzed-FBS (containing 0.5 vol % GENETICIN and 1% penicillin-streptomycin). The subculture was performed by the following method.
The culture medium was removed, and the cells were washed once with phosphate buffered saline without Ca^2+ and Mg^2+. An appropriate amount of trypsin-EDTA was added, and the cells were incubated at room temperature. After the cells were detached, a culture medium in a volume 10-fold the volume of trypsin-EDTA (0.05%) was added to stop an enzyme reaction. The cells were collected in a centrifuge tube, and centrifuged at room temperature for 3 minutes at 120 g, and the supernatant was removed. The cells were suspended in an appropriate amount of culture medium and seeded in a culture flask.
HEK293 cells expressing a NanoLuc-human ABHD6 fusion protein were prepared, and then cryopreserved so as to be 5.0×10^6 cells/mL/vial in CELLBANKER2, and the cells were subjected to an experiment. HBSS (+) containing 20 mmol/L HEPES (pH 7.3) and 0.1% BSA was prepared and used as an assay buffer. The cells were thawed and suspended in the assay buffer to prepare a cell suspension of 2×10^5 cells/mL. […] The plate was allowed to stand at 37° C. for 30 minutes in the presence of 5% CO2. Then, a probe molecule (10 mmol/L in DMSO) having a fluorophore was diluted with the assay buffer so as to have a final concentration of 100 nmol/L, and added to the assay plate in an amount of 15 μL each. Further, this was allowed to stand at 37° C. for 30 minutes in the presence of 5% CO2. Then, a Nano-Glo (registered trademark) Vivazine (trademark) substrate (Promega Corporation) was diluted with the assay buffer according to the method described in the protocol, and added to the assay plate in an amount of 10 μL each, and this was allowed to stand at room temperature for 1 hour. Thereafter, the luminescence and fluorescence intensity were measured using a GloMax (registered trademark) discover system. The ratio between the emission intensity through the 450 nm bandpass filter and the fluorescence intensity through the 600 nm longpass filter was defined as the measured value of each sample. The measured value of the group containing the control substance at a final concentration of 30 μmol/L was defined as 100% inhibition. The measured value of the group not containing the compound was defined as 0% inhibition. The IC50 value of the test compound was determined from the measured value at each test compound concentration.
(BRET reads energy transfer from a luciferase to a nearby fluorophore.)

Sequence of human ABHD6 (Q9BV23 whole entry, the tested form may be a part): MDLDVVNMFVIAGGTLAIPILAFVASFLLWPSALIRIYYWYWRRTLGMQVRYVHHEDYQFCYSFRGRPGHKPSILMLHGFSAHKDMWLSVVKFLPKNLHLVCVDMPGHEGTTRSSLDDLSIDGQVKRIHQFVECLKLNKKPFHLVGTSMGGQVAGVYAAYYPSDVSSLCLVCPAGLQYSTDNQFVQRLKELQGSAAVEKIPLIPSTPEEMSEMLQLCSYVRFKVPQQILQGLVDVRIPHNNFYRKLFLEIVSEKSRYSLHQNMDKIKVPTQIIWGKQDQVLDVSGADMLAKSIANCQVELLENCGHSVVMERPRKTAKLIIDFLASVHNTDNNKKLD
Sequence of recombinant human ABHD6 (33-337) (Q9BV23 33-337): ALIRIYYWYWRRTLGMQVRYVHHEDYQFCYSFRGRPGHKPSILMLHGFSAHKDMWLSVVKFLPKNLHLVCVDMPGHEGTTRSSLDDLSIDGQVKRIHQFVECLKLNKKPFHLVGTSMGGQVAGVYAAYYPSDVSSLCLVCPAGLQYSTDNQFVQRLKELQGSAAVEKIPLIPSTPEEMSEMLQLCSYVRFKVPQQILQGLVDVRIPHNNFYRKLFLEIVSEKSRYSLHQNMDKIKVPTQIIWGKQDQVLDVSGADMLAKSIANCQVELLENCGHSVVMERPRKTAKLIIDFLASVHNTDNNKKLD

Regarding `Cc1ccc(C(=O)N2C[C@@H]3CC[C@@H](Nc4ccc(Br)nn4)[C@]3(F)C2)s1` [Example 10, [(3aR,4R,6aS)-4-[(6-Bromopyridazin-3-yl)amino]-3a-fluoro-1.3.4.5.6.6a-hexahydrocyclopenta[c]pyrrol-2-yl]-(5-methyl-2-thienyl)methanone], the figures for the IC50 (in experiment [1]; at human ABHD6) were under 1 nM and 2 nM, respectively. Turning to `O=C(c1cc2c(s1)CCOC2)N1C[C@@H]2CC3(CC3)[C@@H](Nc3ccc(Br)nn3)[C@@H]2C1` [Example 15, [(3aS, 4S, 6aR)-4-[(6-Bromopyridazin-3-yl)amino]spiro[1,3,3a,4,6,6a-hexahydrocyclopenta[c]pyrrole-5,1′-cyclopropan]-2-yl]-(6,7-dihydro-4H-thieno[3,2-c]pyran-2-yl)methanone], the concentration for half-maximal inhibition (IC50) (in experiment [1]; on human ABHD6) was 1 nM in each case.

Turning to `O=C(c1ccc(C(F)F)s1)N1C[C@@H]2CC[C@@H](Nc3ccc(Cl)nn3)[C@@H]2C1` [Example 1, {(3aS,4R,6aR)-4-[(6-Chloro-3-pyridazinyl)amino]hexahydrocyclopenta[c]pyrrol-2(1H)-yl}[5-(difluoromethyl)-2-thienyl]methanone], the IC50 in experiment [1] is 1 nM; on human ABHD6, 11 nM. Take `Cc1ccc(C(=O)N2C[C@@H]3CC[C@@H](n4ccc5cc(Cl)nnc54)[C@@H]3C2)s1` (racemic) [Example 8-1, rel-[(3aS,4R,6aR)-4-(3-Chloro-7H-pyrrolo[2,3-c]pyridazin-7-yl)hexahydrocyclopenta[c]pyrrol-2(1H)-yl](5-methyl-2-thienyl)methanone]: the IC50 in experiment [1] was determined as 1 nM; at human ABHD6 it was 5 nM. On to `O=C(C1CC2CCC1CC2)N1C[C@@H]2CC[C@@H](Nc3ccc(Br)nn3)[C@@H]2C1` (stereo partly drawn) [Example 2-14, Bicyclo[2.2.2]oct-2-yl[(3aS,4R,6aR)-4-[(6-bromo-3-pyridazinyl)amino]hexahydrocyclopenta[c]pyrrol-2(1H)-yl]methanone], for which the concentration for half-maximal inhibition (IC50) was determined as 2 nM in experiment [1] and 16 nM at human ABHD6. As to `Cc1ccc(C(=O)N2C[C@@H]3CC[C@@H](Nc4nnc(Cl)cc4C#N)[C@@H]3C2)s1` (relative stereo) [Example 9, rel-6-Chloro-3-({(3aS,4R,6aR)-2-[(5-methyl-2-thienyl)carbonyl]octahydrocyclopenta[c]pyrrol-4-yl}amino)-4-pyridazinecarbonitrile], the half-maximal inhibitory concentration (IC50) in experiment [1] worked out at 2 nM; at human ABHD6, 8 nM. Turning to `O=C(c1cc2c(s1)CCOC2)N1C[C@H]2[C@H](Nc3ccc(Br)nn3)CC(F)(F)[C@H]2C1` [Example 16, [(3aR,6R,6aS)-6-[(6-Bromo-3-pyridazinyl)amino]-4,4-difluorohexahydrocyclopenta[c]pyrrol-2(1H)-yl](6,7-dihydro-4H-thieno[3,2-c]pyran-2-yl)methanone], the IC50 in experiment [1] stood at 1 nM; at human ABHD6, 4 nM. In the same order, the values of `Cc1ccc(C(=O)N2C[C@@H]3CC[C@@H](N(Cc4ccccc4)c4ccc(Br)nn4)[C@@H]3C2)s1` [Example 6-2, [(3aS,4R,6aR)-4-[Benzyl(6-bromo-3-pyridazinyl)amino]hexahydrocyclopenta[c]pyrrol-2(1H)-yl](5-methyl-2-thienyl)methanone] are 1 nM and 1 nM. Consider `O=C(c1cc2nn(C3CC3)cc2s1)N1C[C@@H]2CC[C@@H](Nc3ccc(Br)nn3)[C@@H]2C1` [Example 3-10, [(3aS,4R,6aR)-4-[(6-Bromo-3-pyridazinyl)amino]hexahydrocyclopenta[c]pyrrol-2(1H)-yl](2-cyclopropyl-2H-thieno[3,2-c]pyrazol-5-yl)methanone], for which the half-inhibitory concentration (IC50) in experiment [1] was found to be 1 nM; on human ABHD6, 2 nM. Turning to `O=C(c1cc2c(s1)CCOC2)N1C[C@@H]2CC[C@@H](Nc3ccc(Cl)nn3)[C@]2(F)C1` [Example 12, {(3aR,4R,6aS)-4-[(6-Chloro-3-pyridazinyl)amino]-3a-fluorohexahydrocyclopenta[c]pyrrol-2(1H)-yl}(6,7-dihydro-4H-thieno[3,2-c]pyran-2-yl)methanone], the IC50 (in experiment [1]; at human ABHD6) was 1 nM throughout. Consider `O=C(c1cc2c(s1)CCOC2)N1C[C@@H]2CC[C@@H](Nc3ccc(Cl)nn3)[C@@H]2C1` [Example 1-4, [(3aS,4R,6aR)-4-[(6-Chloro-3-pyridazinyl)amino]hexahydrocyclopenta[c]pyrrol-2(1H)-yl](6,7-dihydro-4H-thieno[3,2-c]pyran-2-yl)methanone], for which the figures for the IC50 (in experiment [1]; at human ABHD6) were 1 nM and 2 nM, respectively. On to `CN1C(=O)CCc2sc(C(=O)N3C[C@@H]4CC[C@@H](Nc5ccc(Br)nn5)[C@@H]4C3)cc21` [Example 3, 2-{[(3aS,4R,6aR)-4-[(6-Bromo-3-pyridazinyl)amino]hexahydrocyclopenta[c]pyrrol-2(1H)-yl]carbonyl}-4-methyl-6,7-dihydrothieno[3,2-b]pyridin-5(4H)-one], for which the results for the concentration for half-maximal inhibition (IC50) (in experiment [1]; at human ABHD6) were 5 nM and 62 nM, respectively. `Cc1ccc(C(=O)N2C[C@@H]3CC[C@@H](Nc4ccc(Cl)nn4)[C@@H]3C2)s1` [Example 1-2, {(3aS,4R,6aR)-4-[(6-Chloro-3-pyridazinyl)amino]hexahydrocyclopenta[c]pyrrol-2(1H)-yl}(5-methyl-2-thienyl)methanone]: the IC50 in experiment [1] came to 1 nM; at human ABHD6, 5 nM. `Cc1ccc(C(=O)N2C[C@@H]3CC[C@@H](Nc4ccc(I)nn4)[C@@H]3C2)s1` [Example 5, [(3aS,4R,6aR)-4-[(6-Iodo-3-pyridazinyl)amino]hexahydrocyclopenta[c]pyrrol-2(1H)-yl](5-methyl-2-thienyl)methanone]: the half-inhibitory concentration (IC50) in experiment [1] was found to be 1 nM; at human ABHD6 it was 3 nM. `O=C(c1cc2nn3c(c2s1)CCC3)N1C[C@@H]2CC[C@@H](Nc3ccc(Br)nn3)[C@@H]2C1` [Example 3-6, [(3aS,4R,6aR)-4-[(6-Bromo-3-pyridazinyl)amino]hexahydrocyclopenta[c]pyrrol-2(1H)-yl](7,8-dihydro-6H-pyrrolo[1,2-b]thieno[2,3-d]pyrazol-2-yl)methanone]: the IC50 amounted to 2 nM in experiment [1] and 6 nM on human ABHD6. On to `Cn1cc2sc(C(=O)N3C[C@@H]4CC[C@@H](Nc5ccc(Br)nn5)[C@@H]4C3)cc2n1` [Example 3-9, [(3aS,4R,6aR)-4-[(6-Bromo-3-pyridazinyl)amino]hexahydrocyclopenta[c]pyrrol-2(1H)-yl](2-methyl-2H-thieno[3,2-c]pyrazol-5-yl)methanone], for which the IC50 in experiment [1] turned out to be 1 nM; at human ABHD6 it was 5 nM. In the case of `Cc1ccc(C(=O)N2C[C@@H]3CC[C@@H](Nc4ccc(Br)nn4)[C@@H]3C2)s1` [Example 2, [(3aS,4R,6aR)-4-[(6-Bromo-3-pyridazinyl)amino]hexahydrocyclopenta[c]pyrrol-2(1H)-yl](5-methyl-2-thienyl)methanone], the 50% inhibitory concentration (IC50) in experiment [1] was under 1 nM; on human ABHD6, 1 nM. Turning to `CN(C)c1ncc(C(=O)N2C[C@@H]3CC[C@@H](Nc4ccc(Br)nn4)[C@@H]3C2)s1` [Example 2-6, [(3aS,4R,6aR)-4-[(6-Bromo-3-pyridazinyl)amino]hexahydrocyclopenta[c]pyrrol-2(1H)-yl][2-(dimethylamino)-1,3-thiazol-5-yl]methanone], on human ABHD6, the IC50 was 25 nM.

In general, IC50 refers to the midpoint of a concentration-inhibition curve.
